Holding throughout (test): pIC50, kinobeads binding competition
The target in one experiment is UniProt Q04912. The note with it: cell material: Lysate mix. A digest of the protocol:
(§1)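 Fold changes relative to vehicle, from biological duplicates, were fitted with logistic dose-response models in the R drc package to give pIC50. These fold changes came from TMT10 LC-MS/MS quantification of digested Kinobeads-bound proteins. Compound was applied at nine concentrations (top 30 μM) either to live Jurkat cells in 1:4 steps for 60 min at 37 °C before lysis, or to Jurkat lysate or a 1:1:1:1 HEK293/K-562/HepG2/placenta lysate mix in 1:5 steps for 60 min at 4 °C.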

Another experiment concerns the target T1, KSR1 (UniProt Q8IVT5).
T1 sequence (whole entry): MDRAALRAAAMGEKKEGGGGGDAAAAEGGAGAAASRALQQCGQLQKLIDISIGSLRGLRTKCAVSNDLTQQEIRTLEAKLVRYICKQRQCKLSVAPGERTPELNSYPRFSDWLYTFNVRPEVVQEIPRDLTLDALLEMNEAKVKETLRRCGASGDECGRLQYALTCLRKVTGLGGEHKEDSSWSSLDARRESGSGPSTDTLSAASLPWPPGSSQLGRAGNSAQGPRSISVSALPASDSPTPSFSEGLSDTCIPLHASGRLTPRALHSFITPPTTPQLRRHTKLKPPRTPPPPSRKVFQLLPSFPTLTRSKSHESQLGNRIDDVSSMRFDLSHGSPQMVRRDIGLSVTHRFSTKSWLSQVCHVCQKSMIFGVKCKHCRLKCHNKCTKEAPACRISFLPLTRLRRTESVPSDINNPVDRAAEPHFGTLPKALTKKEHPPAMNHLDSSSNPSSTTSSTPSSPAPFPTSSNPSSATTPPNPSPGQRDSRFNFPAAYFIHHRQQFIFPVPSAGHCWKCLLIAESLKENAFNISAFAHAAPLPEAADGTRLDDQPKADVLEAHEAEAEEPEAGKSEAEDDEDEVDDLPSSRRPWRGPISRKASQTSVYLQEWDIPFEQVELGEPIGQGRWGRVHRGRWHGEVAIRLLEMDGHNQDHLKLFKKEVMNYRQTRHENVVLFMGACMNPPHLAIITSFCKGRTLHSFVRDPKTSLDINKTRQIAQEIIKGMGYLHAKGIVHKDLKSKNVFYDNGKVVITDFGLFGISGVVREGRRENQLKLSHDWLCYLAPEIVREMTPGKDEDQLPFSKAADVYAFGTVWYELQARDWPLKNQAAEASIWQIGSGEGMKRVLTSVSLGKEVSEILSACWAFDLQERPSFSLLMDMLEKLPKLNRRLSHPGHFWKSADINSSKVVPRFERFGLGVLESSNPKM
A digest of the protocol:
as §1

A further experiment deals with CDC7 (UniProt O00311). A digest of the protocol:
as §1

For a further experiment, the target named is UniProt P16234. The note with it: cell material: Lysate mix. In a few lines: as §1
Chain of UniProt P16234 (P16234 whole entry): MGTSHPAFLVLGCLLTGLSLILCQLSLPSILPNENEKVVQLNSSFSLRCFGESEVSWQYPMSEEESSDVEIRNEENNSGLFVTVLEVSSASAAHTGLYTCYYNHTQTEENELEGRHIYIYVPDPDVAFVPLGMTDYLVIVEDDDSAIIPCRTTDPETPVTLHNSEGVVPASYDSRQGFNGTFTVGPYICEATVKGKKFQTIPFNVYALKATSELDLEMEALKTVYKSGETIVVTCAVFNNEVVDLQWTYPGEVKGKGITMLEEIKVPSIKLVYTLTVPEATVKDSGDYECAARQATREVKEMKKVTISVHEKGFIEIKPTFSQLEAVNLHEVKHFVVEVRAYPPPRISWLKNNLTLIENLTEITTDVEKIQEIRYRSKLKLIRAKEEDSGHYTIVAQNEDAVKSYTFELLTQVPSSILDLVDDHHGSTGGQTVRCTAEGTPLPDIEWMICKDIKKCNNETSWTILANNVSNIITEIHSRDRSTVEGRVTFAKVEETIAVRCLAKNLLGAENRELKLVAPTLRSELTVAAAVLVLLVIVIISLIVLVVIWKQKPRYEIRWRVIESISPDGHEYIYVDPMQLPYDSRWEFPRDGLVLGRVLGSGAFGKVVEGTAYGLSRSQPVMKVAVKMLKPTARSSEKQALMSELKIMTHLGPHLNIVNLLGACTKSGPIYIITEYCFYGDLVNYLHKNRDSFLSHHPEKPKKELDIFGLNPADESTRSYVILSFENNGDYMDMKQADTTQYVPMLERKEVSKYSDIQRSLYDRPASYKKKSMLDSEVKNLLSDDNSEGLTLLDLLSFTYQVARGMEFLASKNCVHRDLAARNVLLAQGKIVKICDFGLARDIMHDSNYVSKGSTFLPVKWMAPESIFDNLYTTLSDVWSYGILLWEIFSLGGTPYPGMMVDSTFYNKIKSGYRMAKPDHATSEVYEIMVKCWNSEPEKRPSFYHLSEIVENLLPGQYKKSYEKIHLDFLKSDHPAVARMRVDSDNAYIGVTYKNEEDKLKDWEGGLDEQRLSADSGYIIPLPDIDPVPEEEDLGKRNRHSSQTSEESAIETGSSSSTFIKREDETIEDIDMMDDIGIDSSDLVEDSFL
The target in a further experiment is MET (UniProt P08581). The note with it: cell material: Lysate mix. In a few lines:
as §1

The target in the next experiment is DAPK1 (UniProt P53355). Conditions: cell material: Lysate mix. A digest of the protocol: as §1
A further experiment has as its target UniProt Q14004. A digest of the protocol:
as §1

The target in another experiment is UniProt Q00537. A digest of the protocol: as §1
Chain of UniProt Q00537 (Q00537 whole entry, looked up): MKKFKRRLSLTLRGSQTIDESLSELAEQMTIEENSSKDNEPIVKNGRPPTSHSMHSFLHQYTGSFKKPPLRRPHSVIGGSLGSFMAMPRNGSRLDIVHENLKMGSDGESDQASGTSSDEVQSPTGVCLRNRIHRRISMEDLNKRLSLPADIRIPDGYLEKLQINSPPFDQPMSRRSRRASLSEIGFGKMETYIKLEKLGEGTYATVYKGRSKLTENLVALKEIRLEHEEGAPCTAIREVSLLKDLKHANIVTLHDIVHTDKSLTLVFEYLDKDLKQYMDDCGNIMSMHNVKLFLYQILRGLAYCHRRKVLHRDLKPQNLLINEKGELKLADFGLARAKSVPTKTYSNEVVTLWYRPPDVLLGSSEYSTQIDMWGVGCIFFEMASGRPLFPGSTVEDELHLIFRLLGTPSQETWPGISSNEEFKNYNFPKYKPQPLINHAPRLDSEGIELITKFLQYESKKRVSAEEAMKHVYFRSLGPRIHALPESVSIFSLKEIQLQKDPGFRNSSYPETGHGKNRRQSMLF
For another experiment, the target named is PRKACB (UniProt P22694). A digest of the protocol:
as §1

Another experiment addresses LIMK2 (UniProt P53671). In a few lines:
as §1

A further experiment concerns the target T2, MASTL (UniProt Q96GX5).
T2 sequence (whole entry): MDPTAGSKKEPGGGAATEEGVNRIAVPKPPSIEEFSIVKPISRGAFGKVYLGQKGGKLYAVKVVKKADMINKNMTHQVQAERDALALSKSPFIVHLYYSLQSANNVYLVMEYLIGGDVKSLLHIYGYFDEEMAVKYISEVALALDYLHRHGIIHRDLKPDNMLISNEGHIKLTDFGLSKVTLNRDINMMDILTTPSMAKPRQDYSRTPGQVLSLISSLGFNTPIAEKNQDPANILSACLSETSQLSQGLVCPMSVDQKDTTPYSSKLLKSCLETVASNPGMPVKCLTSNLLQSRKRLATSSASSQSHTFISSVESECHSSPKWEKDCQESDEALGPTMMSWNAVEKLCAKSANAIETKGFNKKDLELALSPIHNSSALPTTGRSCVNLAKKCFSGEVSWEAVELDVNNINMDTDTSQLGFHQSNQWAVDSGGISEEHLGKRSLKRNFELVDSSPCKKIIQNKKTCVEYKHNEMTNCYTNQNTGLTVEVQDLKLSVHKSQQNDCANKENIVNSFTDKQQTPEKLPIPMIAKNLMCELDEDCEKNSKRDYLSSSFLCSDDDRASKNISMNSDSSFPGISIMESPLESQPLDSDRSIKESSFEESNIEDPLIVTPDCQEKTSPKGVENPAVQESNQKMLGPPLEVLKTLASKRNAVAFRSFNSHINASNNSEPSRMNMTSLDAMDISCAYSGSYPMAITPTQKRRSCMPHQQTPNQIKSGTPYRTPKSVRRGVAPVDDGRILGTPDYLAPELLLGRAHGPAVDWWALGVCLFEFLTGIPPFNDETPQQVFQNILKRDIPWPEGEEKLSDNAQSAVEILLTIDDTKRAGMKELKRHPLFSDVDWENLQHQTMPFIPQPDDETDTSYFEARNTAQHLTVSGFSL
A digest of the protocol:
as §1

Chain of LIMK2 (P53671 whole entry, looked up): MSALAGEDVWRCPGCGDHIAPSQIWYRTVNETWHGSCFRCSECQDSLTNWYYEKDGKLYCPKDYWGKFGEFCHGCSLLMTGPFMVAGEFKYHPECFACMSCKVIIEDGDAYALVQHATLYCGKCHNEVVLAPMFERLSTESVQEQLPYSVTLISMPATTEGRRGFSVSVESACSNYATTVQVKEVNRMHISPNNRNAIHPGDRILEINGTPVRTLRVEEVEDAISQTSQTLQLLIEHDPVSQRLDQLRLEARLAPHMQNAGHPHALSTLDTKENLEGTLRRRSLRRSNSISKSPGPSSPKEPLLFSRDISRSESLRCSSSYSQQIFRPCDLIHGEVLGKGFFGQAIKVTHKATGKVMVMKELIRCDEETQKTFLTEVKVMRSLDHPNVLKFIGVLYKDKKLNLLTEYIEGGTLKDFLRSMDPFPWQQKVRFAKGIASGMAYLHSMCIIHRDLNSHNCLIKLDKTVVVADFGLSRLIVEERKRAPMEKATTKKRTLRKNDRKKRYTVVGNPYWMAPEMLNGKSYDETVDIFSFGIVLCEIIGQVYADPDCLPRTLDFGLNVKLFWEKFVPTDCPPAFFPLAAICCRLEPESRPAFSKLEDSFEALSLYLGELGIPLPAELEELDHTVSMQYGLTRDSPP
Chain of MET (P08581 whole entry): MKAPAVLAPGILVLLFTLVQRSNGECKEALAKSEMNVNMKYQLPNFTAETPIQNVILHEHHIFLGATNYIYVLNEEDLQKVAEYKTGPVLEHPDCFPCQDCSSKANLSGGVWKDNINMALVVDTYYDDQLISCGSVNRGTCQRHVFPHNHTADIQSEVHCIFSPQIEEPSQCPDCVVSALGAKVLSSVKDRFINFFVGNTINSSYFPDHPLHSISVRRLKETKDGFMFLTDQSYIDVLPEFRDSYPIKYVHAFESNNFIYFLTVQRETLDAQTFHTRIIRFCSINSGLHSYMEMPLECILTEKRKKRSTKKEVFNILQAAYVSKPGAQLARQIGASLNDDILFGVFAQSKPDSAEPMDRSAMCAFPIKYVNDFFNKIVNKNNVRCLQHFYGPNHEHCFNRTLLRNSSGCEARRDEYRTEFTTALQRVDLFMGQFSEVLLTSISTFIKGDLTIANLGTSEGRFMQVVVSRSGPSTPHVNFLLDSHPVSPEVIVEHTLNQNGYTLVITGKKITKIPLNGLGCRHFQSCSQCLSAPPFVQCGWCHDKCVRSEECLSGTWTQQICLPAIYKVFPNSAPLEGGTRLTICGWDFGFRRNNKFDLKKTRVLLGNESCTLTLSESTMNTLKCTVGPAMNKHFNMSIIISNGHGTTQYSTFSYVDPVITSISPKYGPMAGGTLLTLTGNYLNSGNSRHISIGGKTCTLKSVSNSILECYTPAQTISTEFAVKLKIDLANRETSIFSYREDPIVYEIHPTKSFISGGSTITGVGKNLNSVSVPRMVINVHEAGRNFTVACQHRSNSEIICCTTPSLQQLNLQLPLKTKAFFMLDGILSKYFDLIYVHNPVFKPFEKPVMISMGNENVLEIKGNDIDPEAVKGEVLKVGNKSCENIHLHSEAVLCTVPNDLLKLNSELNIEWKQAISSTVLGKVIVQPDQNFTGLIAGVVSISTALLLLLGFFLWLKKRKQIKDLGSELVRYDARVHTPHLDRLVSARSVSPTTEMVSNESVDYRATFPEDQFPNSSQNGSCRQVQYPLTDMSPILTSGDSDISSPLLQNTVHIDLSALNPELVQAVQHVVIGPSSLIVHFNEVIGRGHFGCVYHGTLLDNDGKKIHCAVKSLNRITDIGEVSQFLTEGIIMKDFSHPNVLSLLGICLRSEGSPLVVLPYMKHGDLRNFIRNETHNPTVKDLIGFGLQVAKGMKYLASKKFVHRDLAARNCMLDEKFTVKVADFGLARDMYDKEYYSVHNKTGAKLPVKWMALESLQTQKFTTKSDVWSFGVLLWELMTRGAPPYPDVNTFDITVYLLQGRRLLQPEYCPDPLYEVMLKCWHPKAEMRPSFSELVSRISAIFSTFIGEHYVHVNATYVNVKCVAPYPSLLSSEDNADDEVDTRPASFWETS
Chain of CDC7 (O00311 whole entry, looked up): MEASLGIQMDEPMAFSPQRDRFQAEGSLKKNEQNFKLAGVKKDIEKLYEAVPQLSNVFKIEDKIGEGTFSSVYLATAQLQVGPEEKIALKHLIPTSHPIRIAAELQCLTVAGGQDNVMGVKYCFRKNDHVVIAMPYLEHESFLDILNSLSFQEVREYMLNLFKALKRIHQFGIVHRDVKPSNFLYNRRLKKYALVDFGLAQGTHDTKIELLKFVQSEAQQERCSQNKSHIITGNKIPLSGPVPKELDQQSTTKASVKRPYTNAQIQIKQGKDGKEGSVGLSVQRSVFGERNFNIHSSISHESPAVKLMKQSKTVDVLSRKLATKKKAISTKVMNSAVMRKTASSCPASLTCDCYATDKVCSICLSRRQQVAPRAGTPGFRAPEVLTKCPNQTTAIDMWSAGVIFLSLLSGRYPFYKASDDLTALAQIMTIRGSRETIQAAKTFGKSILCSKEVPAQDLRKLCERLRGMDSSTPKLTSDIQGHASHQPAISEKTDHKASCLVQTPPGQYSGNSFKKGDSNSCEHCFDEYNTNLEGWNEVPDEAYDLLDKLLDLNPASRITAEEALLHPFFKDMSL

For orientation: pIC50 means the IC50 on a negative log10 scale, so that one unit is a factor of ten. The low end stands for a high IC50, the high end for a low IC50. As for `C#CCNC(=O)c1cc(Nc2cc(C)[nH]n2)nc(N2CCN(Cc3ccc(S(=O)(=O)F)cc3)CC2)n1`, the negative logarithm of the IC50 (pIC50) on UniProt Q04912, on KSR1 (cell material: Lysate mix), at CDC7 (cell material: Lysate mix), at UniProt P16234, at MET and at DAPK1 was less than 4.52 throughout. In addition, the pIC50 at UniProt Q14004 (cell material: Lysate mix) and on UniProt Q00537 (cell material: Lysate mix) was less than 4.52 in each case.
`O=C(NCCNC(=O)c1cc(Nc2cc(C3CC3)[nH]n2)nc(N2CCN(Cc3ccc(S(=O)(=O)F)cc3)CC2)n1)OC1CC/C=C/CCC1` (stereo not given): the pIC50 at UniProt Q04912, at KSR1 (cell material: Jurkat cells), on KSR1 (cell material: Jurkat lysate), at KSR1 (cell material: Lysate mix), on PRKACB (cell material: Jurkat cells) and at PRKACB (cell material: Jurkat lysate) was less than 4.52 throughout. For the same compound, the pIC50 was less than 4.52 on UniProt P16234; less than 4.52 at MET; less than 4.52 at DAPK1; 6.02 at UniProt Q14004 (cell material: Jurkat cells); less than 4.52 on UniProt Q14004 (cell material: Jurkat lysate); less than 4.52 on UniProt Q14004 (cell material: Lysate mix). Besides, the negative logarithm of the IC50 (pIC50) on LIMK2 (cell material: Jurkat cells) is 6.33; on LIMK2 (cell material: Jurkat lysate) it was less than 4.52; at LIMK2 (cell material: Lysate mix), less than 4.52; at UniProt Q00537 (cell material: Jurkat cells) it was 5.68; at UniProt Q00537 (cell material: Jurkat lysate), less than 4.52; at UniProt Q00537 (cell material: Lysate mix), less than 4.52. For the same compound, the pIC50 at MASTL (cell material: Jurkat cells) was 6.1.
`CCNC(=O)c1cc(Nc2cc(C3CC3)[nH]n2)nc(N2CCN(Cc3ccc(S(=O)(=O)F)cc3)CC2)n1`: the pIC50 at UniProt Q04912 is less than 4.52; on CDC7 (cell material: Lysate mix), 4.57; at UniProt P16234 it was less than 4.52; on MET, 4.92; at DAPK1 it was 4.6; at LIMK2 (cell material: Lysate mix), 5.38. Further, the pIC50 at UniProt Q00537 (cell material: Lysate mix) came to 5.52; on MASTL (cell material: Lysate mix), 6.85.
On to `Cc1cc(Nc2cc(C(=O)NCCNC(=O)OC3CC/C=C/CCC3)nc(N3CCN(Cc4ccc(S(=O)(=O)F)cc4)CC3)n2)n[nH]1` (stereo not given), for which the negative-log IC50 (pIC50) at UniProt Q04912, at KSR1 (cell material: Lysate mix), on PRKACB (cell material: Lysate mix), on MET, at DAPK1 and at UniProt Q14004 (cell material: Lysate mix) was less than 4.52 throughout. Also, the pIC50 on LIMK2 (cell material: Lysate mix), on UniProt Q00537 (cell material: Lysate mix) and on MASTL (cell material: Lysate mix) was less than 4.52 throughout.
With `CCNC(=O)c1cc(Nc2cc(C)[nH]n2)nc(N2CCN(Cc3ccc(S(=O)(=O)F)cc3)CC2)n1`, the pIC50 on UniProt Q04912 is 4.54; on KSR1 (cell material: Lysate mix) it was less than 4.52; on PRKACB (cell material: Lysate mix), less than 4.52; at MET, less than 4.52; at UniProt Q14004 (cell material: Lysate mix), less than 4.52; at LIMK2 (cell material: Lysate mix) it was 4.62.
For the compound `C#CCNC(=O)c1cc(Nc2cc(C3CC3)[nH]n2)nc(N2CCN(Cc3ccc(S(=O)(=O)F)cc3)CC2)n1`, the negative logarithm of the IC50 (pIC50) on CDC7 (cell material: Jurkat cells) was 5.68; at PRKACB (cell material: Jurkat lysate), less than 4.52; at UniProt P16234, less than 4.52; on DAPK1, less than 4.52; on UniProt Q14004 (cell material: Jurkat cells) it was 6.19; on UniProt Q14004 (cell material: Jurkat lysate), less than 4.52. In addition, the pIC50 worked out at 6.52 at LIMK2 (cell material: Jurkat cells); 5.16 on LIMK2 (cell material: Jurkat lysate); 5.53 at LIMK2 (cell material: Lysate mix); 6.39 at UniProt Q00537 (cell material: Jurkat cells); 5.11 at UniProt Q00537 (cell material: Jurkat lysate); 5.7 at UniProt Q00537 (cell material: Lysate mix). Also, the pIC50 on MASTL (cell material: Jurkat cells) worked out at 6.15; at MASTL (cell material: Jurkat lysate) it was 6.03; on MASTL (cell material: Lysate mix) it was 6.74.
